Measurements published in ChEMBL document CHEMBL3769379, “SAR Studies of 5-Aminopyrazole-4-carboxamide Analogues as Potent and Selective Inhibitors of Toxoplasma gondii CDPK1” (ACS Med Chem Lett, 2015).
Activity calls are given as the source filed them. The rule behind the calls is not given here.

What was measured:
[1] = Cytotoxicity against human CRL8155 cells after 48 hrs by Alamar Blue assay; assay type: cell-based; details: crl8155, 48 h
[2] = target: T1, Calmodulin-domain protein kinase 1 (Toxoplasma gondii, UniProt Q9BJF5)
T1 sequence (Q9BJF5 whole entry): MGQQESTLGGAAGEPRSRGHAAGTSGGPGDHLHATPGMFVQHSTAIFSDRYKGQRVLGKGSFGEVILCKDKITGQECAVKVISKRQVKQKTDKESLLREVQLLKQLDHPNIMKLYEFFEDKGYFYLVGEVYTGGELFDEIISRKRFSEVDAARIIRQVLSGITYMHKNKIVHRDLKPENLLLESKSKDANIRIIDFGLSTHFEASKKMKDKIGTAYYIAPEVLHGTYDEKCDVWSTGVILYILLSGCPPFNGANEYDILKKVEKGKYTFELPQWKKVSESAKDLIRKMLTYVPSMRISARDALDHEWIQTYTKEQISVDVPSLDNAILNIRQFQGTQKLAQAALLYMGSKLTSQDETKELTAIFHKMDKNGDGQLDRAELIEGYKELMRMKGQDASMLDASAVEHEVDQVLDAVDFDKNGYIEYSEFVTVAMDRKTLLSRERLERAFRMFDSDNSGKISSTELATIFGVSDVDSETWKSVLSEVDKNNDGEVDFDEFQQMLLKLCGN

[3] = target: Proto-oncogene tyrosine-protein kinase Src (Homo sapiens, UniProt P12931)
[4] = Ratio of drug level in brain to plasma in mouse at 5 mg/kg, ip by LC/MS analysis; assay type: ADME, organism-based
Mus musculus [5] = assay: Toxicity in CF-1 mouse infected with Toxoplasma gondii RH assessed as altered grooming at 5 to 40 mg/kg, po bid administered for 5 days; assay type: organism-based; details: in vivo, 120 h
Toxoplasma gondii [6] = assay: Antiprotozoan activity against Toxoplasma gondii RH infected in CF-1 mouse assessed as reduction of parasite burden in peritoneal fluid at 5 to 10 mg/kg, po bid administered for 5 days measured 24 hrs post last dose by hemocytometer-based fluorescence microscopy; assay type: functional, organism-based
[7] = Solubility of the compound in PBS incubated overnight at pH 6.5 by HPLC-UV analysis; assay type: physicochemical; details: buffer
[8] = human, plasma, 4 h
Description: Fraction unbound in human plasma after 4 hrs by LC/MS analysis

Mus musculus [9] = assay: Toxicity in CF-1 mouse infected with Toxoplasma gondii RH assessed as lethargy at 5 to 40 mg/kg, po bid administered for 5 days; assay type: organism-based; details: in vivo, 120 h
Toxoplasma gondii [10] = assay: Antiprotozoan activity against Toxoplasma gondii RH infected in CF-1 mouse assessed as reduction of parasite burden in peritoneal fluid at 20 to 40 mg/kg, po bid administered for 5 days measured 24 hrs post last dose by hemocytometer-based fluorescence microscopy relative to control; assay type: functional
Mus musculus [11] = assay: Toxicity in CF-1 mouse infected with Toxoplasma gondii RH assessed as weight loss at 5 to 40 mg/kg, po bid administered for 5 days; assay type: organism-based; details: in vivo, 120 h
Toxoplasma gondii [12] = assay: Antiprotozoan activity against Toxoplasma gondii overexpressing wild type CDPK1 infected in fibroblasts assessed as growth inhibition at low concentration after 2 days by beta-galactosidase reporter assay; assay type: functional, organism-based
Mus musculus [13] = assay: Toxicity in CF-1 mouse infected with Toxoplasma gondii RH assessed as weight loss at 20 to 50 mg/kg, po qd administered for 5 days; assay type: organism-based; details: in vivo, 120 h
Mus musculus [14] = assay: Toxicity in CF-1 mouse infected with Toxoplasma gondii RH assessed as altered grooming at 20 to 50 mg/kg, po qd administered for 5 days; assay type: organism-based; details: in vivo, 120 h
Mus musculus [15] = assay: Toxicity in CF-1 mouse infected with Toxoplasma gondii RH assessed as lethargy at 20 to 50 mg/kg, po qd administered for 5 days; assay type: organism-based; details: in vivo, 120 h
Toxoplasma gondii [16] = assay: Antiprotozoan activity against Toxoplasma gondii infected in fibroblasts assessed as growth inhibition at low concentration after 2 days by beta-galactosidase reporter assay; assay type: functional, organism-based
Mus musculus [17] = assay: Toxicity in CF-1 mouse infected with Toxoplasma gondii RH assessed as mortality at 50 mg/kg, po qd administered for 5 days measured on day 5; assay type: organism-based; details: in vivo, 120 h
Mus musculus [18] = assay: Toxicity in CF-1 mouse infected with Toxoplasma gondii RH assessed as lethargy at 20 mg/kg, po qd administered for 5 days; assay type: organism-based; details: in vivo, 120 h
Toxoplasma gondii [19] = assay: Antiprotozoan activity against Toxoplasma gondii RH infected in CF-1 mouse assessed as reduction of parasite burden in brain at 20 to 50 mg/kg, po qd administered for 5 days measured 24 hrs post last dose by quantitative RT-PCR analysis relative to control; assay type: functional

Chain of Proto-oncogene tyrosine-protein kinase Src (P12931 2-536 limits assumed): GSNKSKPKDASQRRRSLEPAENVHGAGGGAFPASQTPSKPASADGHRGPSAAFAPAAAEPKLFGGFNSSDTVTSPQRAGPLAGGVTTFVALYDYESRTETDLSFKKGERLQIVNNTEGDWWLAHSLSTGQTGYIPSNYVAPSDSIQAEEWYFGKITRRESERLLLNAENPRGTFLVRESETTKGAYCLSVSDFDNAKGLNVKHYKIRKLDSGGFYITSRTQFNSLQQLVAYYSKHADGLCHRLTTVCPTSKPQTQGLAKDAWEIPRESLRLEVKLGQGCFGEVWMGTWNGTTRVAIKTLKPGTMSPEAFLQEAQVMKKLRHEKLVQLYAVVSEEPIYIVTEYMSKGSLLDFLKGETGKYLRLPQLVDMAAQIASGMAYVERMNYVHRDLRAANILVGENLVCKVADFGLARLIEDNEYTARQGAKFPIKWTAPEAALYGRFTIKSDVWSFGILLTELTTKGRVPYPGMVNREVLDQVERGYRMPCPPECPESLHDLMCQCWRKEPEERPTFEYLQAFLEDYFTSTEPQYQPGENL

Compound | Activity [1] [µM] | IC50 [2] [nM] | also measured
CCOc1ccc2cc(-c3nn(CC4CC4)c(N)c3C(N)=O)cnc2c1 | > 40 | 15 | –
CCCOc1ccc2cc(-c3nn(C(C)(C)C)c(N)c3C(N)=O)cnc2c1 | > 40 | – | –
CCOc1ccc2cc(-c3nn(C4CCC4)c(N)c3C(N)=O)cnc2c1 | > 40 | – | –
CC(C)(C)n1nc(-c2ccc3nc(OC4CCC4)ccc3c2)c(C(N)=O)c1N | > 40 | 12 | –
CCOc1ccc2cc(-c3nn(C4CCCCCC4)c(N)c3C(N)=O)cnc2c1 | > 40 | – | –
CCOc1ccc2cc(-c3nn(CC(C)(C)CO)c(N)c3C(N)=O)cnc2c1 | > 40 | – | IC50 [3]: > 10000 nM
CCOc1ccc2cc(-c3nn(C(C)C)c(N)c3C(N)=O)ccc2n1 | > 40 | 6.5 | –
CC(C)Oc1ccc2cc(-c3nn(C(C)(C)C)c(N)c3C(N)=O)cnc2c1 | > 40 | 16 | –
CCOc1ccc2cc(-c3nn(C4CCCC4)c(N)c3C(N)=O)cnc2c1 | > 40 | – | –
CC(C)(C)n1nc(-c2cnc3cc(OCC4CC4)ccc3c2)c(C(N)=O)c1N | > 40 | – | IC50 [3]: > 10000 nM
CCOc1ccc2cc(-c3nn(C(C)(C)C)c(N)c3C(N)=O)cnc2c1 | – | – | BPR [4]: 15.8%; Activity (Mus musculus [5]): Non-toxic; Activity (Toxoplasma gondii [6]): Active; solubility [7]: Insoluble; Fu [8]: 57%; Activity (Mus musculus [9]): Non-toxic; fold change (FC) (Toxoplasma gondii [10]): >10; Activity (Mus musculus [11]): Non-toxic
CCOc1ccc2cc(-c3nn(C(C)CO)c(N)c3C(N)=O)cnc2c1 (centres undefined) | – | 26 | –
CC(C)(C)n1nc(-c2cnc3cc(F)ccc3c2)c(C(N)=O)c1N | > 40 | – | –
CCOc1ccc2cc(-c3nn(CC(C)(C)CO)c(N)c3C(N)=O)ccc2n1 | > 40 | – | solubility [7]: soluble
CCOc1ccc2cc(-c3nn(C4CCCCC4)c(N)c3C(N)=O)ccc2n1 | > 40 | 5.5 | –
CCOc1ccc2cc(-c3nn(C4CCCCCC4)c(N)c3C(N)=O)ccc2n1 | – | 17 | –
COc1ccc2cc(-c3nn(C(C)(C)C)c(N)c3C(N)=O)cnc2c1 | > 40 | – | –
CC(C)(C)n1nc(-c2cnc3cc(OC4CC4)ccc3c2)c(C(N)=O)c1N | > 40 | – | BPR [4]: 16%; solubility [7]: soluble; growth inhibition (GI) (Toxoplasma gondii [12]): inactive; Activity (Mus musculus [13]): Non-toxic; Activity (Mus musculus [14]): Non-toxic; Activity (Mus musculus [15]): Non-toxic; growth inhibition (GI) (Toxoplasma gondii [16]): inactive
CCOc1ccc2cc(-c3nn(CC4CC4)c(N)c3C(N)=O)ccc2n1 | > 40 | 7.9 | –
CCOc1ccc2cc(-c3nn(C(C)(C)C)c(N)c3C(N)=O)ccc2n1 | > 40 | – | –
CC(C)(C)n1nc(-c2cnc3cc(OC(F)(F)F)ccc3c2)c(C(N)=O)c1N | – | 39 | –
CC(C)(C)n1nc(-c2cnc3cc(OC4CCC4)ccc3c2)c(C(N)=O)c1N | > 40 | 7 | solubility [7]: Insoluble
CC(C)(C)n1nc(-c2ccc3nc(OC4CC4)ccc3c2)c(C(N)=O)c1N | > 40 | 4.6 | Activity (Mus musculus [17]): Toxic; BPR [4]: 43%; growth inhibition (GI) (Toxoplasma gondii [12]): inactive; Fu [8]: 88%; Activity (Mus musculus [13]): Non-toxic; Activity (Mus musculus [18]): Non-toxic; Activity (Mus musculus [14]): Non-toxic; fold change (FC) (Toxoplasma gondii [19]): >5; growth inhibition (GI) (Toxoplasma gondii [16]): inactive
CCOc1ccc2cc(-c3nn(CC(C)(C)O)c(N)c3C(N)=O)cnc2c1 | – | 113 | –
